Experimental data from US20090202540A1, “SUBSTITUTED OXAZAPHOSPHORINES” (Auspex Pharmaceuticals, Inc., priority 2008, published 2009).
Where two headings read alike, the source gives them in different places.

Settings: 1 mg per mL liver microsome protein, 1 μM compound, 37° C., compared to the non-isotopically enriched drug
Procedure: Liver microsomal stability assays were conducted at 1 mg per mL liver microsome protein with an NADPH-generating system in 2% NaHCO3 (2.2 mM NADPH, 25.6 mM glucose 6-phosphate, 6 units per mL glucose 6-phosphate dehydrogenase and 3.3 mM MgCl2). Test compounds were prepared as solutions in 20% acetonitrile-water and added to the assay mixture (final assay concentration 1 μM) and incubated at 37° C. Final concentration of acetonitrile in the assay should be <1%. Aliquots (50 μL) were taken out at times 0, 15, 30, 45, and 60 min, and diluted with ice cold acetonitrile (200 μL) to stop the reactions. Samples were centrifuged at 12,000 RPM for 10 min to precipitate proteins. Supernatants were transferred to micro centrifuge tubes and stored for LC/MS/MS analysis of the degradation half-life of the test compounds.

SMILES | % increase of HLM degradation half-life (50%-150%) | also measured
[2H]C([2H])(Cl)C([2H])([2H])N(C([2H])([2H])C([2H])([2H])Cl)P1(=O)NCCCO1 (stereo not shown) [Example 1, d8-Bis-(2-chloro-ethyl)-(2-oxo-2λ^5-[1,3,2]oxazaphosphinan-2yl)-amine] |  | % increase of HLM degradation half-life (column −25%-0%): + (−25%-0%)
[2H]C1([2H])CCNP(=O)(N(CCCl)CCCl)O1 (stereo not shown) [Example 2, Bis-(2-chloro-ethyl)-(d2-2-oxo-2λ^5-[1,3,2]oxazaphosphinan-2yl)-amine] | + (50%-150%) | 
[2H]C1([2H])CCNP(=O)(N(C([2H])([2H])C([2H])([2H])Cl)C([2H])([2H])C([2H])([2H])Cl)O1 (stereo not shown) [Example 3, d8-Bis-(2-chloro-ethyl)-(d2-2-oxo-2λ^5-[1,3,2]oxazaphosphinan-2yl)amine] | + (50%-150%) | 
[2H]C1([2H])CCOP(=O)(N(C([2H])([2H])C([2H])([2H])Cl)C([2H])([2H])C([2H])([2H])Cl)N1 (stereo not shown) [Example 5, d8-Bis-(2-chloro-ethyl)-(2-oxo-2λ^5-[1,3,2]oxazaphosphinan-2yl)-d2-amine] |  | % increase of HLM degradation half-life (0%-50%): + (0%-50%)
